Assay results as given in patent publication US20220105061A1, “COMPOSITIONS AND METHODS FOR TREATING RESPIRATORY INSUFFICIENCY” (The Regents of the University of California, priority 2019, published 2022).
Entries after “also recorded” stand apart in the source; their conditions may differ.

System: Serpinh1 Prx1-cre conditional KO mice
Experiment: Prenatal 4-PBA treatment of pregnant females in the Serpinh1 Prx1-cre conditional KO (Hsp47-Prx1) lethal osteogenesis imperfecta mouse model
Type: in vivo
Settings: for perinatal lethality due to respiratory insufficiency: Hsp47-Prx1 model
Description: Mutations in SERPINH1 (HSP47) cause osteogenesis imperfecta (OI). Patients with mutations in these genes are severely affected by bone fragility and pulmonary dysfunction. Serpinh1 Prx1-cre conditional KO mice were generated. These animals die immediately after birth due to respiratory insufficiency. The Prx1 gene is expressed in lungs' and limbs' mesenchymal lineages, causing phenotypes in both the pulmonary and skeletal system. Right after birth, all affected animals become cyanotic and die.
Animals were treated with 4-PBA. At least 12 pregnant females (SerpinH1−/− crossed with males Serpinh1+/−Prx1 carriers), who were expected to give birth to 25% affected pups (Serpinh1−/−Prx1 positive) were treated with 1 gr/Kg/day of 4-PBA in drinking water since the gestational age of E14 until birth.
Respiratory function was analyzed in treated vs. control animals by cyanotic observations, X-rays, lung floatability test, whole body oxymetry and histology. Multiple dosages were tested: 1, 2 and 5 gr/Kg/day, 1 gr/Kg/day being the minimum dosage to obtain the effect in 100% of individuals. 5 gr/Kg/day was discarded as 2 of 12 treated pups in two independent litters died without presenting the phenotype and showing hematomas. Other pregnancy stages were also tested starting the treatment from E10 to E17.
4-PBA treatment rescue perinatal lethality due to respiratory insufficiency in Hsp47-Prx1 model. A. X-Rays show a dark spot corresponding with air in the lungs in healthy animals (red arrows). […] B. Histological architecture is collapse in mutants (B′) but rescued in 4-PBA treated animals (B″). C. Mutants show cyanotic aspect at birth (C′). This is also rescued in 4-PBA treated animals (C″). D. Oxygen levels are rescued in treated mutants as observed by oxymeter measures right after birth.

O=C(O)CCCc1ccccc1 [4-PBA, 4-phenylbutyric acid]
individuals in which the effect was obtained (1 gr/Kg/day): 100% | survival of pups with the affected genotype born from treated mothers (1 gr/Kg/day in drinking water to pregnant females, E14 until birth, untreated affected pups die immediately after birth): around 24 hours | treated pups that died without presenting the phenotype and showing hematomas (5 gr/Kg/day, two independent litters, dosage discarded): 2 of 12 | perinatal lethality due to respiratory insufficiency (prenatal treatment): rescue | perinatal lethality due to respiratory insufficiency (prenatal treatment, listed as 4-phenylbutyric): rescues | lung histological architecture (collapsed in mutants, FIG. 1B): rescued | minimum dosage to obtain the effect in 100% of individuals (dosages tested: 1, 2 and 5 gr/Kg/day): 1 gr/Kg/day | embryo viability (mouse, in vivo): possible decreased embryo viability | unproductive pregnancies of 4 plugged females (mouse, in vivo): two | cyanosis of treated affected animals (prenatal treatment, cyanotic observations at birth): did not become cyanotic; also recorded: rescued | oxygen levels (whole body oxymetry) (prenatal treatment, oxymeter measures right after birth): normal levels of oxygen; also recorded: rescued | air in the lungs on X-rays (treated mutants, FIG. 1A): show air in the lungs | lung function improvement (treatments performed between E13 to E17): observed similarly
